Laboratory results reported in patent US20250312499A1, “KISSPEPTIN RECEPTOR (KISS1R) TARGETED THERAPEUTICS AND USES THEREOF” (priority 2024, published 2025).
Square brackets hold non-standard residues; d marks the D form. Peptide text beside a SMILES is read from it. * marks the point of attachment. DOTA = O=C(O)CN1CCN(CC(=O)O)CCN(CC(=O)*)CCN(CC(=O)O)CC1; Gly(N-(3-F-4-Me-benzyl)) = Cc1ccc(CNCC(=O)*)cc1F; Butanoyl(4-(4-MePh)) = Cc1ccc(CCCC(=O)*)cc1; Api(1-amidino) = N=C(N)N1CCC(N)(C(=O)O)CC1; Api = NC1(C(=O)O)CCNCC1; Ahx = NCCCCCC(=O)O; azaGly = NNC(=O)O

Molecular target: human kisspeptin receptor (Homo sapiens (Human), UniProt Q969F8)
Assay: Human KISS1R binding assay (membrane competition binding)
Details: 90 min at room temperature; competition with 0.2 nM [125I]-metastin (45-54); Flp-In T-Rex 293 kisspeptin membranes; metal complexes nonradioactive Ga, In, Lu; read-out: hKiSSR Binding Ki (90 min)
Experimental: Crude membrane fractions are prepared from Flp-In T-Rex 293 (Thermo Fisher) cell line expressing the human kisspeptin receptor. The cells are grown to 85-100% confluence on standard tissue culture dishes in Dulbecco's Modified Eagles Medium (DMEM) (Corning) supplemented with 10% FBS (Gemini), 1% penicillin-streptomycin-glutamine (Gibco), 500 μg/mL hygromycin, and 15 μg/mL blastacidin. 48 hrs prior to preparing membranes 10 μg/ml of tetracycline is added to the culture media to induce receptor expression. To prepare membranes, cells are scraped and collected in 1× Dulbecco's phosphate buffered saline (Corning) and then pelleted at 1000 RPMs. The cell pellet is reconstituted in membrane preparation buffer (20 mM HEPES, 6 mM MgCl2 and 1 mM EGTA, protease inhibitor tablets (Pierce), pH 7.4) and placed in a cell disruption vessel (Parr Instrument company) at 1000 PSI for 30 min on ice. The pressurized contents are then released and spun down at 1000 RPMs and the supernatant is collected and further centrifuged at 15,000 RPMs to pellet the membranes. The membrane pellet is resuspended in membrane preparation buffer, snap frozen and stored at −80° C. for later use.
The human kisspeptin membrane binding assay utilizes the following components: radiolabel [^125I]-metastin (45-54) (human) (Perkinhmer), crude Flp-In T-Rex 293 kisspeptin membranes, and competing small molecule and peptide ligands. The assay is initiated by combining in assay buffer (50 mM TrisHCl, 5 mM MgCl2, 2 mM EGTA, 10 mM CaCl2, 0.1% BSA, pH 7.4) a dose response of competing ligand (final concentrations are typically 0-10,000 nM), 5-10 μg of Flp-In T-Rex 293 kisspeptin membranes, and 0.2 n M [^125I]-metastin (45-54) in a 96-well assay plate and allowed to incubate 90 minutes at room temperature. Assay contents are then filtered through unifilter CF/C: microplates (PerkinElmer) pre-soaked with 0.5% BSA and washed with 9×400 μL of cold wash buffer (10 mM HEPES, 500 mM NaCl, 0.1% Tween-20, pH7.4). Assay plates are read using a Microbeta^2 (PerkinElmer) and Ki values for compounds are determined using a GraphPad Prism 9.3 non-linear regression analysis.

Chain of human kisspeptin receptor (Q969F8 whole entry): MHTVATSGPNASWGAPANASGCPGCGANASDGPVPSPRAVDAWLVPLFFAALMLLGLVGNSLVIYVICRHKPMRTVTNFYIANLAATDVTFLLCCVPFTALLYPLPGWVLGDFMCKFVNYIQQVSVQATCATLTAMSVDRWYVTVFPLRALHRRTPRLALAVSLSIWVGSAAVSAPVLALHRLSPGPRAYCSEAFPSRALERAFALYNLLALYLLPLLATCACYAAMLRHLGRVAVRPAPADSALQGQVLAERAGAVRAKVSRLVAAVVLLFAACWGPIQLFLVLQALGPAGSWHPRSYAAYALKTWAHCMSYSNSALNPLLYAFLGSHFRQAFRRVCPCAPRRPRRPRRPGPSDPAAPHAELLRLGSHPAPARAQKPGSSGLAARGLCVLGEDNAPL

Row | Compound | Ki
1 | Cc1ccc(CNCC(=O)N2CCC(NC(=O)[C@H](CC(C)C)NC(=O)NNC(=O)[C@H](Cc3ccccc3)NC(=O)[C@@H](NC(=O)[C@H](CC(N)=O)NC(=O)[C@@H](Cc3c[nH]c4ccccc34)NC(=O)[C@@H](Cc3ccc(O)cc3)NC(=O)CCCCCNC(=O)CN3CCN(CC(=O)O)CCN(CC(=O)O)CCN(CC(=O)O)CC3)[C@@H](C)O)(C(=O)N[C@@H](Cc3c[nH]c4ccccc34)C(N)=O)CC2)cc1F [Compound 1] ({DOTA-Ahx}-[dY][dW]NTF[azaGly]L[Api](Gly(N-(3-F-4-Me-benzyl)))W-NH2) | < 10 nM
2 | CC(C)C[C@H](NC(=O)CNC(=O)[C@H](Cc1ccccc1)NC(=O)CCCCCNC(=O)CN1CCN(CC(=O)O)CCN(CC(=O)O)CCN(CC(=O)O)CC1)C(=O)NC1(C(=O)N[C@@H](Cc2c[nH]c3ccccc23)C(N)=O)CCN(C(=N)N)CC1 [Compound 3] ({DOTA-Ahx}-FGL[Api(1-amidino)]W-NH2) | > 100 nM
3 | CC(C)C[C@H](NC(=O)NNC(=O)[C@H](Cc1ccccc1)NC(=O)[C@@H](NC(=O)[C@H](CC(N)=O)NC(=O)[C@@H](Cc1c[nH]c2ccccc12)NC(=O)[C@@H](Cc1ccc(O)cc1)NC(=O)CCCCCNC(=O)CN1CCN(CC(=O)O)CCN(CC(=O)O)CCN(CC(=O)O)CC1)[C@@H](C)O)C(=O)NC1(C(=O)N[C@@H](Cc2c[nH]c3ccccc23)C(N)=O)CCN(C(=N)N)CC1 [Compound 6] ({DOTA-Ahx}-[dY][dW]NTF[azaGly]L[Api(1-amidino)]W-NH2) | < 10 nM
4 | Cc1ccc(CNCC(=O)N2CCC(NC(=O)[C@H](CC(C)C)n3cc([C@H](Cc4ccccc4)NC(=O)CCCCCNC(=O)CN4CCN(CC(=O)O)CCN(CC(=O)O)CCN(CC(=O)O)CC4)nn3)(C(=O)N[C@@H](Cc3c[nH]c4ccccc34)C(N)=O)CC2)cc1F [Compound 9] | < 10 nM
5 | Cc1ccc(CNCC(=O)N2CCC(NC(=O)[C@H](CC(C)C)NC(=O)CNC(=O)[C@H](Cc3ccccc3)NC(=O)CCCCCNC(=O)CN3CCN(CC(=O)O)CCN(CC(=O)O)CCN(CC(=O)O)CC3)(C(=O)N[C@@H](Cc3ccc(O)cc3)C(N)=O)CC2)cc1F [Compound 11] ({DOTA-Ahx}-FGL[Api](Gly(N-(3-F-4-Me-benzyl)))Y-NH2) | < 10 nM

More lines, now with the values ahead:

Row | Ki | Compound
6 | < 10 nM | Cc1ccc(CNCC(=O)N2CCC(NC(=O)[C@H](CC(C)C)NC(=O)NNC(=O)[C@H](Cc3ccccc3)NC(=O)CCCCCNC(=O)CN3CCN(CC(=O)O)CCN(CC(=O)O)CCN(CC(=O)O)CC3)(C(=O)N[C@@H](Cc3c[nH]c4ccccc34)C(N)=O)CC2)cc1F [Compound 2] ({DOTA-Ahx}-F[azaGly]L[Api](Gly(N-(3-F-4-Me-benzyl)))W-NH2)
7 | 10 to 100 nM | CC(C)C[C@H](NC(=O)NNC(=O)[C@H](Cc1ccccc1)NC(=O)CCCCCNC(=O)CN1CCN(CC(=O)O)CCN(CC(=O)O)CCN(CC(=O)O)CC1)C(=O)NC1(C(=O)N[C@@H](Cc2c[nH]c3ccccc23)C(N)=O)CCN(C(=N)N)CC1 [Compound 5] ({DOTA-Ahx}-F[azaGly]L[Api(1-amidino)]W-NH2)
8 | 10 to 100 nM | Cc1ccc(CCCC(=O)N2CCC(NC(=O)[C@H](CC(C)C)NC(=O)NNC(=O)[C@H](Cc3ccccc3)NC(=O)CCCCCNC(=O)CN3CCN(CC(=O)O)CCN(CC(=O)O)CCN(CC(=O)O)CC3)(C(=O)N[C@@H](Cc3c[nH]c4ccccc34)C(N)=O)CC2)cc1 [Compound 7] ({DOTA-Ahx}-F[azaGly]L[Api](Butanoyl(4-(4-MePh)))W-NH2)
9 | < 10 nM | Cc1ccc(CNCC(=O)N2CCC(NC(=O)[C@H](CC(C)C)SCCNC(=O)[C@H](Cc3ccccc3)NC(=O)CCCCCNC(=O)CN3CCN(CC(=O)O)CCN(CC(=O)O)CCN(CC(=O)O)CC3)(C(=O)N[C@@H](Cc3c[nH]c4ccccc34)C(N)=O)CC2)cc1F [Compound 8]
10 | < 10 nM | Cc1ccc(CNCC(=O)N2CCC(NC(=O)[C@H](CC(C)C)NC(=O)CNC(=O)[C@H](Cc3ccccc3)NC(=O)CCCCCNC(=O)CN3CCN(CC(=O)O)CCN(CC(=O)O)CCN(CC(=O)O)CC3)(C(=O)N[C@@H](Cc3c[nH]c4ccccc34)C(N)=O)CC2)cc1F [Compound 10] ({DOTA-Ahx}-FGL[Api](Gly(N-(3-F-4-Me-benzyl)))W-NH2)
